Reference: patent US20220204577A1, “Synthetic Peptides With Affinity for the Interleukin-10 Receptor, Pharmaceutical Composition and Use Thereof as Immunomodulators for Treating Autoimmune, Inflammatory or Allergic Diseases” (Universidade Federal de Uberlândia, priority 2019, published 2022)

Experiments:
[1] = tested on: TLR4 signaling pathway; test: TLR4 signaling pathway (SEAP) in HEK cells, LPS pre-treatment then peptides; type: cell-based; details: 12 hours
Procedure: (§1) HEK cells were used to investigate the ability of the peptides to reduce activation of the TLR4 signaling pathway after 12 hours of treatment.
(§2) In the assay shown in FIG. 7A, the cells were treated with peptides for 1 hour, then LPS (100 ng/ml) was added. SEAP production was measured after 12 hours of treatment. In the assay shown in FIG. 7B, the cells were treated with LPS (100 ng/ml) for 1 hour, then the peptides were added. SEAP production was measured after 12 hours of treatment. LPS (100 ng/mL) was used as positive control and IL-10 (0.4 ng/mL) as negative control. * P<0.05; ** P<0.005; *** P<0.0005.

[2] = tested on: NFκB, IFN, or TLR4 signaling pathways; test: Reporter cell lines treated with peptides alone (no activating molecule); type: cell-based; details: various concentrations, 12, 24 and 48 hours
Procedure: To investigate the ability of the peptides to interfere with the NFkB, IFN, and TLR4 pathways, reporter cell lines were used. To analyze whether the isolated peptides (without activation molecules) could induce any type of activation, the isolated peptides were tested in the cell lines during 12, 24, and 48 hours of treatment. […] As an example, FIGS. 2A, 2B, and 2C show an analysis of NFkB expression after stimulation with the synthesized peptides described in this report. The cells were treated with the synthesized peptides Pep 1, Pep 2, Pep 3, and Pep 4 at various concentrations for 12, 24, and 48 hours, without activating molecules. Luciferase was then measured after 12 hours of treatment (FIG. 2A), 24 hours of treatment (FIG. 2B), and 48 hours of treatment (FIG. 2C). […] TNF-α (200 ng/mL) was used as a positive control.

[3] = tested on: TLR4 signaling pathway; test: TLR4 signaling pathway (SEAP) in HEK cells, peptide pre-treatment then LPS; type: cell-based; details: 12 hours
Procedure: as §1, §2

[4] = tested on: Dendritic cells from mice bone marrow; test: Co-stimulatory molecules on bone marrow dendritic cells; type: cell-based; details: CD11c+ dendritic cells; 1 μM; 24 hours
Procedure: Dendritic cells from mice bone marrow were isolated to analyze the effect of synthesized peptides Pep 1, Pep 2, Pep 3, and Pep 4 at two concentrations, 1 μM, and 10 μM, on reducing cell activation. […] In the assays, CD11c+CD86 cells (FIG. 8A) and CD11c+CD40+ cells (FIG. 8B) were used after 24 hours of treatment. LPS (100 ng/mL) was used as a positive control. * P<0.05; ** P<0.005.

[5] = tested on: NFκB; test: NFkB expression in Jurkart-Dual reporter cells, TNF-α pre-treatment then peptides; type: cell-based
Procedure: Then another assay was performed in which the cells were pretreated with TNF-α and the peptides were added later. […] In the assays shown in FIGS. 4 A, B, and C the analysis of NFkB expression was performed in Jurkart-Dual reporter cells. Cells were treated with TNF-α (200 ng/ml) for 1 hour and the peptides were added. Luciferase was measured after 12 hours of treatment (FIG. 4A), 24 hours of treatment (FIG. 4B), and 48 hours of treatment (FIG. 4C). TNF-α (200 ng/mL) was used as a positive control and rIL-10 (Recombinant Interleukin-10) (0.4 ng/mL) as a negative control. * P<0.05; ** P<0.005; *** P<0.0005.

[6] = tested on: NFκB; test: NFkB expression in Jurkart-Dual reporter cells, peptide pre-treatment then TNF-α; type: cell-based; details: peptide then TNF-α
Procedure: The assay was then performed using TNF-α as the activating molecule not only in the control, but after a pre-treatment with the synthesized peptides Pep 1, Pep 2, Pep 3, and Pep 4 at various concentrations. […] In the assays shown in FIGS. 3 A, B, and C, NFkB expression analysis was performed in Jurkart-Dual reporter cells. Cells were treated with peptides for 1 hour and TNF-α (200 ng/ml) was added. Luciferase was measured after 12 hours of treatment (FIG. 3A), 24 hours of treatment (FIG. 3B), and 48 hours of treatment (FIG. 3C).

[7] = Dynamic Light Scattering (DLS), aggregation behavior in solution; type: physicochemical
Procedure: The aggregation behavior of peptides Pep 1, Pep 2, Pep 3, and Pep 4 in solution was determined by Dynamic Light Scattering (DLS), as shown in FIG. 1E. All synthetic peptides were approximately 100% monomeric in solution. The measured hydrodynamic radius of the peptides was similar for Pep 1 (0.82 nm), Pep 2 ([…]), Pep 3 (0.79 nm), and Pep 4 (0.86 nm).

[8] = tested on: IFN signaling pathway; test: IFN signaling pathway (SEAP) in Jurkart-Dual reporter cells, peptide pre-treatment then IFN-α; type: cell-based; details: peptide then IFN-α, 48 hours
Procedure: Therefore, we cannot confirm whether they were able to affect the activation pathway (FIGS. 6A, B, and C) in the same or better way than the negative control (rIL-10). In the assays shown in FIGS. 5 (A, B, and C) and 6 (A, B, and C), IFN expression was analyzed in Jurkart-Dual reporter cells. In the assays shown in FIGS. 5 A, B, and C, cells were treated with peptides for 1 hour followed by the addition of IFN-α (104 EU/ml). Secreted Embryonic Alkaline Phosphatase (SEAP) production was measured after 12 hours of treatment (FIG. 5A), 24 hours of treatment (FIG. 5B), and 48 hours of treatment (FIG. 5C). In the assays shown in FIGS. 6 A, B, and C, cells were treated with IFN-α (104 EU/ml) for 1 hour, and then peptides were added. SEAP production was measured after (D) 12 hours of treatment (E) 24 hours of treatment, and (F) 48 hours of treatment. IFN-α (104 EU/mL) was used as a positive control and rIL-10 (0.4 ng/mL) as a negative control. * P<0.05.

[9] = LPS 100 ng/ml 1 hour, then peptide, 100 μM
[10] = peptide 1 hour, then LPS 100 ng/ml, 100 μM

Substance: Pep 2: synthetic peptide with affinity to the Interleukin-10 receptor, SEQ ID No 02, without disulfide bridges (HASSAVIKSSSGGGS; INTERLEUKIN-10 MIMETIC PEPTIDE)
- activation of the TLR4 pathway [1, 9]: activation of the TLR4 pathway was more significantly reduced
- activation of the TLR4 pathway ([1]; LPS then peptide, 0.01 μM): activation of the TLR4 pathway was more significantly reduced
- activation of the TLR4 pathway ([1]; LPS then peptide, 0.05 μM): activation of the TLR4 pathway was more significantly reduced
- activation of the TLR4 pathway ([1]; LPS then peptide, 0.1 μM): activation of the TLR4 pathway was more significantly reduced
- activation of the TLR4 pathway ([1]; LPS then peptide, 0.5 μM): activation of the TLR4 pathway was more significantly reduced
- activation of the TLR4 pathway ([1]; LPS then peptide, 1 μM): activation of the TLR4 pathway was more significantly reduced
- NFkB expression (luciferase) [2]: unable to elicit any response
- TLR4 pathway activation [3, 10]: significantly reduced pathway activation
- TLR4 pathway activation ([3]; peptide then LPS, 0.1 μM): significantly reduced pathway activation
- expression of CD40+ [4]: decreased the expression of CD86+ and CD40+
- expression of CD86+ [4]: decreased the expression of CD86+ and CD40+
- NFκB signaling ([5]; TNF-α 200 ng/ml 1 hour, then peptide, 100 μM, 12 hours): able to decrease NFκB signaling
- NFκB signaling ([5]; TNF-α then peptide, 0.5 μM, 24 hours): less activation of the analyzed signaling pathway
- NFκB signaling ([5]; TNF-α then peptide, 1 μM, 12 hours): able to decrease NFκB signaling
- NFκB signaling ([5]; TNF-α then peptide, 1 μM, 24 hours): less activation of the analyzed signaling pathway
- NFκB signaling ([5]; TNF-α then peptide, 5 μM, 12 hours): able to decrease NFκB signaling
- NFκB signaling ([5]; TNF-α then peptide, 5 μM, 24 hours): less activation of the analyzed signaling pathway
- NFκB signaling ([5]; TNF-α then peptide, 10 μM, 12 hours): able to decrease NFκB signaling
- NFκB signaling ([5]; TNF-α then peptide, 100 μM, 24 hours): less activation of the analyzed signaling pathway
- NFκB activation ([6]; 0.1 μM, 12, 24 and 48 hours): decreased NFκB activation
- NFκB activation ([6]; 0.5 μM, 12, 24 and 48 hours): decreased NFκB activation
- NFκB activation ([6]; 1 μM, 12, 24 and 48 hours): decreased NFκB activation
- NFκB activation ([6]; 5 μM, 12, 24 and 48 hours): decreased NFκB activation
- NFκB activation ([6]; 10 μM, 12, 24 and 48 hours): decreased NFκB activation
- NFκB activation ([6]; 100 μM, 12, 24 and 48 hours): decreased NFκB activation

Substance: Pep 3: synthetic peptide with affinity to the Interleukin-10 receptor, SEQ ID No 03, linear chain (HCFDTQRMEFRMPPGGGS; INTERLEUKIN-10 MIMETIC PEPTIDE)
- hydrodynamic radius [7]: 0.79 nm
- activation of the TLR4 pathway [1, 9]: activation of the TLR4 pathway was more significantly reduced
- activation of the TLR4 pathway ([1]; LPS then peptide, 0.1 μM): activation of the TLR4 pathway was more significantly reduced
- activation of the TLR4 pathway ([1]; LPS then peptide, 0.5 μM): activation of the TLR4 pathway was more significantly reduced
- activation of the TLR4 pathway ([1]; LPS then peptide, 10 μM): activation of the TLR4 pathway was more significantly reduced
- NFkB expression (luciferase) [2]: unable to elicit any response
- TLR4 pathway activation [3, 10]: significantly reduced pathway activation
- NFκB signaling ([5]; TNF-α then peptide, 0.001 μM, 24 hours): less activation of the analyzed signaling pathway
- NFκB signaling ([5]; TNF-α then peptide, 0.005 μM, 12 hours): able to decrease NFκB signaling
- NFκB signaling ([5]; TNF-α then peptide, 0.005 μM, 24 hours): less activation of the analyzed signaling pathway
- NFκB signaling ([5]; TNF-α then peptide, 10 μM, 24 hours): less activation of the analyzed signaling pathway
- activation of the IFN signaling pathway ([8]; 100 μM): activation of the pathway was reduced
- NFκB activation ([6]; 0.01 μM, 48 hours): reducing pathway activation
- NFκB activation ([6]; 0.05 μM, 12 hours): reducing pathway activation

Substance: Pep 4: synthetic peptide with affinity to the Interleukin-10 receptor, SEQ ID No 04, linear chain (HCMTGSRATFPSAPGGGS; INTERLEUKIN-10 MIMETIC PEPTIDE)
- hydrodynamic radius [7]: 0.86 nm
- activation of the TLR4 pathway [1, 9]: activation of the TLR4 pathway was more significantly reduced
- activation of the TLR4 pathway ([1]; LPS then peptide, 0.5 μM): activation of the TLR4 pathway was more significantly reduced
- activation of the TLR4 pathway ([1]; LPS then peptide, 1 μM): activation of the TLR4 pathway was more significantly reduced
- activation of the TLR4 pathway ([1]; LPS then peptide, 5 μM): activation of the TLR4 pathway was more significantly reduced
- activation of the TLR4 pathway ([1]; LPS then peptide, 10 μM): activation of the TLR4 pathway was more significantly reduced
- NFkB expression (luciferase) [2]: unable to elicit any response
- TLR4 pathway activation [3, 10]: significantly reduced pathway activation
- TLR4 pathway activation ([3]; peptide then LPS, 1 μM): significantly reduced pathway activation
- TLR4 pathway activation ([3]; peptide then LPS, 5 μM): significantly reduced pathway activation
- TLR4 pathway activation ([3]; peptide then LPS, 10 μM): significantly reduced pathway activation
- NFκB signaling ([5]; TNF-α then peptide, 0.5 μM, 12 hours): able to decrease NFκB signaling
- activation of the IFN signaling pathway ([8]; 0.05 μM): activation of the pathway was reduced
- activation of the IFN signaling pathway ([8]; 100 μM): activation of the pathway was reduced
- NFκB activation ([6]; 0.005 μM, 48 hours): reduced pathway activation
- NFκB activation ([6]; 0.01 μM, 48 hours): reduced pathway activation
- NFκB activation ([6]; 0.05 μM, 48 hours): reduced pathway activation
